ChEMBL document CHEMBL5465560, “Selectivity Literature for EUbOPEN Chemogenomic Library” (2024)

Columns and labels:
[1] = molecular target: T1, Mitogen-activated protein kinase 13 (Homo sapiens) (UniProt O15264); test: Selectivity interaction (KinomeScan (DiscoverX)) EUB0001049a MAPK13; conditions: at 1 µM
T1 sequence (whole entry): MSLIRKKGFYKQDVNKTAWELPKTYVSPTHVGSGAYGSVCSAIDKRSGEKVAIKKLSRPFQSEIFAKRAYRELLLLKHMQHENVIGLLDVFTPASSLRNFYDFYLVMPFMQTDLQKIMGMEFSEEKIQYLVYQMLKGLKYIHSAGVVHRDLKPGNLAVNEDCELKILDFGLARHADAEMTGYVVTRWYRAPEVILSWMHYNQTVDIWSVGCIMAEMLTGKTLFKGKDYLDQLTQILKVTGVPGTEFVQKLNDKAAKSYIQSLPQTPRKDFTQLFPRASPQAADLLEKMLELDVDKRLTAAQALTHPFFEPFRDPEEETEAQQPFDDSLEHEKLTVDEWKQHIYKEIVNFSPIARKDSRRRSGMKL

[2] = molecular target: CDK6/cyclin D2 (Homo sapiens) (UniProt Q00534+P30279); test: Selectivity interaction (Millipore kinase profiler) EUB0000124b CDK6; assay type: protein-complex assay; conditions: at 10 µM
[3] = molecular target: Proto-oncogene tyrosine-protein kinase ROS (Homo sapiens) (UniProt P08922); test: Selectivity interaction (KinomeScan (DiscoverX)) EUB0000666a ROS1; conditions: at 10 µM
[4] = molecular target: Neuronal acetylcholine receptor subunit beta-2 (Homo sapiens) (UniProt P17787); test: Selectivity interaction (Eurofins CEREP Diversity Profile (receptors and ion channels)) EUB0000279b CHRNB2; conditions: at 10 µM
Chain of Neuronal acetylcholine receptor subunit beta-2 (Homo sapiens) (P17787 whole entry): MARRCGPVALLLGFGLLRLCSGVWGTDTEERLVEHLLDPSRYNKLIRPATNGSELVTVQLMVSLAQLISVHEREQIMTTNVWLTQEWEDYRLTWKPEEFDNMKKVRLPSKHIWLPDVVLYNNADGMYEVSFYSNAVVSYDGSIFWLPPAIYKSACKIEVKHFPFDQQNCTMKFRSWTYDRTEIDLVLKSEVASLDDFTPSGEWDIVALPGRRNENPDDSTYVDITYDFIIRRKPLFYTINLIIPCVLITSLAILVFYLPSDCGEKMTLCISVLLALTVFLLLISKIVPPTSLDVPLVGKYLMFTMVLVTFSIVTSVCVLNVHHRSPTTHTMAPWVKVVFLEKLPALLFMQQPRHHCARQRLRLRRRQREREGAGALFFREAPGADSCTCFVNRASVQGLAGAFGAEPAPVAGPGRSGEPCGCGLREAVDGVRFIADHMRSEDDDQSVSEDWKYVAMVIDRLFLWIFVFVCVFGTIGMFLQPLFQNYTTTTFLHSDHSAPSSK

[5] = molecular target: Serine/threonine-protein kinase SIK1 (Homo sapiens) (UniProt P57059); conditions: at 10 µM
Chain of Serine/threonine-protein kinase SIK1 (Homo sapiens) (P57059 whole entry): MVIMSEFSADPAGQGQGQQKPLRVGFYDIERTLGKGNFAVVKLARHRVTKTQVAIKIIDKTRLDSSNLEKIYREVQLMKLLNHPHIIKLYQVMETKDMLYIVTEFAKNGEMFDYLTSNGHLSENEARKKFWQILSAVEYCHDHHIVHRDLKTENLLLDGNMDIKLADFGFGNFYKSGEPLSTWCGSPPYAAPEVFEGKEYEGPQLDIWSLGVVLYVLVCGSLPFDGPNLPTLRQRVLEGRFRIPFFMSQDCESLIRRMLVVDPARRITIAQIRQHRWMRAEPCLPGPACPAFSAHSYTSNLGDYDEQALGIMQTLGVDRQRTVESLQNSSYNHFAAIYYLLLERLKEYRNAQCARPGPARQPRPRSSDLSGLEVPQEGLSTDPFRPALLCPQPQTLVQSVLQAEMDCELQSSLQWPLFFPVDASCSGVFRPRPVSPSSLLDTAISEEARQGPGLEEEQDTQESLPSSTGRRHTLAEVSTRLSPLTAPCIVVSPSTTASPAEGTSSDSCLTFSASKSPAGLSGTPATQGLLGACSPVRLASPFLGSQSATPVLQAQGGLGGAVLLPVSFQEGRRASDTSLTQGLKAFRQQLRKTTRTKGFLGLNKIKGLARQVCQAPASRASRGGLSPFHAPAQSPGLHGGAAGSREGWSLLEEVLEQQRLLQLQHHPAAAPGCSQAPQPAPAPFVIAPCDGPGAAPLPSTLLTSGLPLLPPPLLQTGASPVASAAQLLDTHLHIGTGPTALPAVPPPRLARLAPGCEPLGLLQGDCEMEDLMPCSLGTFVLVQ

[6] = molecular target: Dual specificity mitogen-activated protein kinase kinase 2 (Homo sapiens) (UniProt P36507); conditions: at 10 µM
Chain of Dual specificity mitogen-activated protein kinase kinase 2 (Homo sapiens) (P36507 whole entry): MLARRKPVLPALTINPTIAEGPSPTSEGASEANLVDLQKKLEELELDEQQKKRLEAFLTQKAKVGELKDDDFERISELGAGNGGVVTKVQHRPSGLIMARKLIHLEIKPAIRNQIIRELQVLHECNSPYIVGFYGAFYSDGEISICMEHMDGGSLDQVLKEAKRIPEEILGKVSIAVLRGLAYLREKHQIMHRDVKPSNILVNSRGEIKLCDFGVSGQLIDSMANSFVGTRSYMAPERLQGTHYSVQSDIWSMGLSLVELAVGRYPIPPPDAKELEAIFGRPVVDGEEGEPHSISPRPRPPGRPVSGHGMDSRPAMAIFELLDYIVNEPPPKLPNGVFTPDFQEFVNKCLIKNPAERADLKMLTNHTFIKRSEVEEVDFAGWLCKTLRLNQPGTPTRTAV

[7] = molecular target: 5'-AMP-activated protein kinase catalytic subunit alpha-1 (Homo sapiens, UniProt Q13131); test: Selectivity interaction (Ambit KINOMEscan and KiNATiv profiling in Jurkat cells) EUB0000090b PRKAA1; assay type: cell-based; conditions: at 1 µM
Chain of 5'-AMP-activated protein kinase catalytic subunit alpha-1 (Q13131 whole entry, looked up): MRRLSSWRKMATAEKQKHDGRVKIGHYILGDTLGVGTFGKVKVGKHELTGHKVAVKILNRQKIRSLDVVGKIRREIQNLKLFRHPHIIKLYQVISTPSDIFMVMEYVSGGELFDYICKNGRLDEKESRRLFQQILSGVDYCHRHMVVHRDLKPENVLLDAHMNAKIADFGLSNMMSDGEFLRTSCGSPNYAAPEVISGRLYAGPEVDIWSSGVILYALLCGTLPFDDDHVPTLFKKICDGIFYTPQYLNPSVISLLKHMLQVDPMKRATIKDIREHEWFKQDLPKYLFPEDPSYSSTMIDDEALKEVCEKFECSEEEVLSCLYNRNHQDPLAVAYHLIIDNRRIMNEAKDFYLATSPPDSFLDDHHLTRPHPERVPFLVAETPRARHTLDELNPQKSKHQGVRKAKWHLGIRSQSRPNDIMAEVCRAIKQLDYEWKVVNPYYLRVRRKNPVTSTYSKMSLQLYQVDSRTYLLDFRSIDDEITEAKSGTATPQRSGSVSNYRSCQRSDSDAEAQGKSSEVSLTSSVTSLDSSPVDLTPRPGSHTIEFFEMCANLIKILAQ

[8] = molecular target: Serine/threonine-protein kinase PLK3 (Homo sapiens, UniProt Q9H4B4); test: Selectivity interaction (Ambit KINOMEscan and KiNATiv profiling in Jurkat cells) EUB0000090b PLK3; assay type: cell-based; conditions: at 1 µM
Chain of Serine/threonine-protein kinase PLK3 (Q9H4B4 whole entry, looked up): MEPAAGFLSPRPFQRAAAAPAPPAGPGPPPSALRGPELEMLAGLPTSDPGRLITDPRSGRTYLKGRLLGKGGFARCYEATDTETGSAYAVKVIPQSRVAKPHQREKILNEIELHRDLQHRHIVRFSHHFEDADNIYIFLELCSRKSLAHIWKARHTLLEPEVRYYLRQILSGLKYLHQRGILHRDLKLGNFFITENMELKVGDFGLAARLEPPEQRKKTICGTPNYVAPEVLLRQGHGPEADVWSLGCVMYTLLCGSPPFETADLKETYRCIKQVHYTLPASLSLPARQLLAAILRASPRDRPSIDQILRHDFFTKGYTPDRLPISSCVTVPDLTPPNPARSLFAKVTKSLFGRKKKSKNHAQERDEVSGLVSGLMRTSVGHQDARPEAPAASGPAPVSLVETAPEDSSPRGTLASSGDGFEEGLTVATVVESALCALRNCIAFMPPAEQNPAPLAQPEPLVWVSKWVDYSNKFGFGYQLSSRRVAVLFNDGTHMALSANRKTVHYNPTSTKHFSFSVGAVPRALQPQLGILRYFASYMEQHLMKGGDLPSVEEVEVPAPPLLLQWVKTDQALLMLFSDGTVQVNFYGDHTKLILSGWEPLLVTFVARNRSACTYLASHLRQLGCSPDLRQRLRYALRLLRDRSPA

[9] = molecular target: Atypical kinase COQ8A, mitochondrial (Homo sapiens, UniProt Q8NI60); test: Selectivity interaction (KinomeScan (DiscoverX)) EUB0000045b ADCK3
Chain of Atypical kinase COQ8A, mitochondrial (Q8NI60 163-647 limits assumed): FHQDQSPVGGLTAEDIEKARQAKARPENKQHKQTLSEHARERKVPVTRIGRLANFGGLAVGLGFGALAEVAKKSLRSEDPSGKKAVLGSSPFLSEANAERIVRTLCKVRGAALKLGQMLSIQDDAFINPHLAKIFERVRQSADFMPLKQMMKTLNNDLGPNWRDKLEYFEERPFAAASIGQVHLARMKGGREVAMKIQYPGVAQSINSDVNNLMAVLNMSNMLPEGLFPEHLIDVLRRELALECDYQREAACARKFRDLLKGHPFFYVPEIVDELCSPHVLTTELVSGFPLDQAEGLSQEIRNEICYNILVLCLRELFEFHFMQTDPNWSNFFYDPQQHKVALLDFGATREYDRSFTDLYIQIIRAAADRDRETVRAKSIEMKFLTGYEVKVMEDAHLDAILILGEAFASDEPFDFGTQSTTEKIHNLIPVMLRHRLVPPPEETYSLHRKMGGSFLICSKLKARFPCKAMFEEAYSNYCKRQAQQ

[10] = molecular target: T2, Mitogen-activated protein kinase kinase kinase 3 (Homo sapiens) (UniProt Q99759); conditions: at 10 µM
T2 sequence (whole entry): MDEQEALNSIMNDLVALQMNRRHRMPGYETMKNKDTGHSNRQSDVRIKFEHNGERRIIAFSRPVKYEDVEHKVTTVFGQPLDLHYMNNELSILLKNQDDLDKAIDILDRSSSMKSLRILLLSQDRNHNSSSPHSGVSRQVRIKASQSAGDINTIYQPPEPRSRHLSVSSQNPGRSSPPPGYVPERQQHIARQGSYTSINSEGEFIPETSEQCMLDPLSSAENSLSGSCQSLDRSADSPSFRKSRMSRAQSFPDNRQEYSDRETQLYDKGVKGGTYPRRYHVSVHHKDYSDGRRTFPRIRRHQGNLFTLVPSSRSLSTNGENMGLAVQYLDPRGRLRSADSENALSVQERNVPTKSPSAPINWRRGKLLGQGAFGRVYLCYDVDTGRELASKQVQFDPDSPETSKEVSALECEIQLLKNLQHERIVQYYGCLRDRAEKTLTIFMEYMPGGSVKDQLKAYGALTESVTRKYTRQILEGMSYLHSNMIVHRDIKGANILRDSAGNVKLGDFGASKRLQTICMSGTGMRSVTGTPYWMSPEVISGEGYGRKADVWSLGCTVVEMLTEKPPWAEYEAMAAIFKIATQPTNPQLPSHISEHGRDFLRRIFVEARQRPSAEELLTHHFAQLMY

[11] = molecular target: T3, Receptor-interacting serine/threonine-protein kinase 1 (Homo sapiens) (UniProt Q13546); test: Selectivity interaction (KinomeScan (DiscoverX)) EUB0000655a RIPK1; conditions: at 10 µM
T3 sequence (whole entry): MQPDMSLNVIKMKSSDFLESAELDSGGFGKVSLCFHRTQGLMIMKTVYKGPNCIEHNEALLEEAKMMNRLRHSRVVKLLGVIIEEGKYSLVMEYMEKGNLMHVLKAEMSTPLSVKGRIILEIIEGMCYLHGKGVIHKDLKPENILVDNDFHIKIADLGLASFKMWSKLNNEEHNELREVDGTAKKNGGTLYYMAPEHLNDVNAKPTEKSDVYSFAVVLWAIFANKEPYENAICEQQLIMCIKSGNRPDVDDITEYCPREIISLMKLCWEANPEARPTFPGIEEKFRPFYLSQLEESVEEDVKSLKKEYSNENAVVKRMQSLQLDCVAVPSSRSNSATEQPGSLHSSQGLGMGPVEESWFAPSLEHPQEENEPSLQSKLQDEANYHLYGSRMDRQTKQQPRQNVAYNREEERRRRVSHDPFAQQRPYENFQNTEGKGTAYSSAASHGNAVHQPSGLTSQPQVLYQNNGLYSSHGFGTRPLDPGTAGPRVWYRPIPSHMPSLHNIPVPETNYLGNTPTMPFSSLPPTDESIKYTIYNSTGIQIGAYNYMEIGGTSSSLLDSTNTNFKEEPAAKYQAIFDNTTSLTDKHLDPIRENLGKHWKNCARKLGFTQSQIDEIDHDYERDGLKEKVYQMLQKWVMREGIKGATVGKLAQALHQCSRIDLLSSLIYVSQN

Focal adhesion kinase 1 = Focal adhesion kinase 1 (Homo sapiens, UniProt Q05397); test: Selectivity interaction (Kinase panel (Z-LYTE Assay)) EUB0001632a PTK2; conditions: at 10 µM
[12] = molecular target: Phosphatidylinositol 4-phosphate 3-kinase C2 domain-containing subunit alpha (Homo sapiens) (UniProt O00443); test: Selectivity interaction (ProQinase) EUB0000171b PIK3C2A
Chain of Phosphatidylinositol 4-phosphate 3-kinase C2 domain-containing subunit alpha (Homo sapiens) (O00443 whole entry, the tested form may be a part): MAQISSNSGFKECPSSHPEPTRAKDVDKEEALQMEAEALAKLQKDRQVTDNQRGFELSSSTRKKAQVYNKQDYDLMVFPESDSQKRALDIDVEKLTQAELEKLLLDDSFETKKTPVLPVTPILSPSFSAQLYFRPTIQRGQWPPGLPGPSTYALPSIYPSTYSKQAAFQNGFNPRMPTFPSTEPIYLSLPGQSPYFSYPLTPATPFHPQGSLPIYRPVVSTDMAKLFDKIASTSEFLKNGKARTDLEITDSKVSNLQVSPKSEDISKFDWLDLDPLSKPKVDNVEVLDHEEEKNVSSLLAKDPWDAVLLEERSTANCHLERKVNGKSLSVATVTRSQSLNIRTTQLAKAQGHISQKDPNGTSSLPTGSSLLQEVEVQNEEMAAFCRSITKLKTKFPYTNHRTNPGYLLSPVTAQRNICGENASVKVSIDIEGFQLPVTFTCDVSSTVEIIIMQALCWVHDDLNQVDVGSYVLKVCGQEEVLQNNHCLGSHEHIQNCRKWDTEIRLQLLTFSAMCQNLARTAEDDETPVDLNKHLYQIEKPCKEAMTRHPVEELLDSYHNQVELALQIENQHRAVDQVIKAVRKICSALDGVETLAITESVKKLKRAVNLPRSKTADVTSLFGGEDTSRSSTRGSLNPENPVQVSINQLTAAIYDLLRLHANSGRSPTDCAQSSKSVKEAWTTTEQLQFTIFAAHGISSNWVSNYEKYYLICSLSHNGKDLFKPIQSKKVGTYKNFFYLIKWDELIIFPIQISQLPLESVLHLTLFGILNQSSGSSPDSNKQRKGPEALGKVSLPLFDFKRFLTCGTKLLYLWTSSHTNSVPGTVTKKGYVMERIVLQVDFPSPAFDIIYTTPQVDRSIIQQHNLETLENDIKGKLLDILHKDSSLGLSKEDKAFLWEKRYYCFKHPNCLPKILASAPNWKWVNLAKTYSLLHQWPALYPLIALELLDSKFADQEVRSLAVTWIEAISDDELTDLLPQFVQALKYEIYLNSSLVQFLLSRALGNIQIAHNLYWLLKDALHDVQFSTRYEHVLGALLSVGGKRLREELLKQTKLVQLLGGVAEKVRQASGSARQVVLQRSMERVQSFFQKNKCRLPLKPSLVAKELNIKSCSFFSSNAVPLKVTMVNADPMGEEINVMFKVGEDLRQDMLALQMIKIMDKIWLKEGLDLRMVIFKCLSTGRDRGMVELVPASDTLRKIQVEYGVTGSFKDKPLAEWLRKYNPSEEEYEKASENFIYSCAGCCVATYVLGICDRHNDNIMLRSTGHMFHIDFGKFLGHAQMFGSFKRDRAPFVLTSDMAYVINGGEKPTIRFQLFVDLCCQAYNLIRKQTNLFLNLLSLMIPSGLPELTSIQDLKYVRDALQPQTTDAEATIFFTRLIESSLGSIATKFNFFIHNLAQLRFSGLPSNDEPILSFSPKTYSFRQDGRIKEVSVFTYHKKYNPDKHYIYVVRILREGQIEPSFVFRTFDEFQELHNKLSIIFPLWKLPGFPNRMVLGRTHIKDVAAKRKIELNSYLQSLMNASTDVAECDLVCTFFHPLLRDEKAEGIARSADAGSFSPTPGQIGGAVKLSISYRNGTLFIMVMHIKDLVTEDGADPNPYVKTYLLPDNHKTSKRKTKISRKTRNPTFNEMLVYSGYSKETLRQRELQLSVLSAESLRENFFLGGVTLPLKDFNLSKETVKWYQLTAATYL

Structure (SMILES): COc1cc(Nc2nc(C)cc(-c3cnn4nc(OC)ccc34)n2)cc(C(F)(F)F)c1
- % of control [1]: 95%

Structure (SMILES): CC(=O)Nc1cccc(-n2c(=O)n(C3CC3)c(=O)c3c(Nc4ccc(I)cc4F)n(C)c(=O)c(C)c32)c1
- % of control [2]: 107%

Structure (SMILES): O=C(NOC[C@H](O)CO)c1ccc(F)c(F)c1Nc1ccc(I)cc1F
- % of control [3]: 92%

Structure (SMILES): CC(=O)c1cc(-c2ccccc2OCC2CC2)c2ncccn12
- % of control [4]: 105%

Structure (SMILES): CCN(CC)CCCCNc1ncc2cc(-c3cc(OC)cc(OC)c3)c(NC(=O)NC(C)(C)C)nc2n1
- % of control [5]: 100%
- % of control [6]: 100%

Structure (SMILES): CN(C)C/C=C/C(=O)Nc1ccc(C(=O)N2CCCC(Nc3ncc(Cl)c(-c4c[nH]c5ccccc45)n3)C2)cc1 (stereo not given)
- % of control [7]: 79%
- % of control [8]: 86%

Structure (SMILES): C=CC(=O)Nc1cc(-n2c(=O)ccc3cnc4ccc(-c5ccc(NS(C)(=O)=O)cc5)cc4c32)ccc1C
- % of control ([9]; at 1 µM): 100%
- % of control ([9]; at 10 µM): 82%

Structure (SMILES): Cc1cc([C@@H](C)Nc2ccccc2C(=O)O)c2nc(N3CCOCC3)cc(=O)n2c1 [AZD-6482]
- % of control [10]: 87%

Structure (SMILES): CN(C)CCOc1ccc(-c2nc(-c3ccncc3)c(-c3ccc4c(c3)CC/C4=N\O)[nH]2)cc1
- % of control [11]: 72%

Structure (SMILES): Cn1cc(-n2cnc3c(NCc4nc5cc(Cl)c(Cl)cc5[nH]4)nc(N4CCOCC4)nc32)cn1
- % of control (Focal adhesion kinase 1): 5.39%

Structure (SMILES): C=CC(=O)Nc1cccc(C(=O)Nc2ccc(Nc3cc(-c4[nH]c(SC)nc4C)ccn3)cc2)c1
- % of control ([12]; at 1 µM): 189%
- % of control ([12]; at 5 µM): 183%
